# Measurements: patent US20230357179A1, “RAF KINASE INHIBITORS AND METHODS OF USE THEREOF” (Deciphera Pharmaceuticals, LLC, priority 2021, published 2023)
# Tests used:
# B-Raf kinase = target: T1, B-Raf kinase (Homo sapiens, UniProt P15056); test: Biochemical assay for B-Raf.1 (coupled pyruvate kinase/lactate dehydrogenase); conditions: read-out: BRAF.1 IC50
# T1 construct: GST (N); purchased Sigma
# Outline: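 NADH oxidation followed at 340 nm in a pyruvate kinase/lactate dehydrogenase-coupled assay with 0.13 nM B-Raf, 30.1 nM MEK substrate, 1 mM ATP, pH 7.5 Tris buffer, 1% DMSO. Monitored 6 h at 30 °C; rate taken from 4–5 h. IC50 from four-parameter sigmoidal fit.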
# A375 cells = test: A375 cell proliferation assay (1), resazurin, 96-well; format: cell-based; conditions: Homo sapiens, A-375, inhibition of cell proliferation
# Outline: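 Viability was read by resazurin fluorescence at 540 nm excitation and 600 nm emission, using a 440 μM solution added for 5–6 h at the end of culture. IC50 came from the curve fit.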
# WM3928 cells = test: WM3928 cell proliferation assay (1), resazurin, 96-well; format: cell-based; conditions: inhibition of cell proliferation
# Outline: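 IC50 was derived from resazurin fluorescence (ex 540, em 600 nm) after a 6–7 h dye incubation. Before that, cells had 67–72 h of compound exposure at 37 °C, 5% CO2.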
# Miapaca-2 cells = test: MiaPaca-2 cell proliferation assay (1), resazurin, 96-well; format: cell-based; conditions: Homo sapiens, MIA PaCa-2, inhibition of cell proliferation
# Outline: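 Three thousand cells per well in DMEM with 10% FBS and 2.5% horse serum exposed to serially diluted compound in triplicate for 67-72 h at 37 °C, 5% CO2. Viability by resazurin (additional 5-6 h), fluorescence ex 540/em 600 nm; IC50 calculated.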
# T1 sequence (P15056 416-766): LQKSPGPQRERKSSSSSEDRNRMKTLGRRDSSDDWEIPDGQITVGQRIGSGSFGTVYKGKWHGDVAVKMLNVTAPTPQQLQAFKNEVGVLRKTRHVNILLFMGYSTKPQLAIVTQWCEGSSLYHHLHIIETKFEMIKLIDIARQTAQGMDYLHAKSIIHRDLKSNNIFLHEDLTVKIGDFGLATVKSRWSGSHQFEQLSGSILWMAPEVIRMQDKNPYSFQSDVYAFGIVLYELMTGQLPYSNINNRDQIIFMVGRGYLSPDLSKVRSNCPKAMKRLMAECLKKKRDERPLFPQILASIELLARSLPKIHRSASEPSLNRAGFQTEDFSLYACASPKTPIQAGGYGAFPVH
compound,measurement,setting,value
Cc1ccc(NC(=O)N2CC[C@H](C(F)(F)F)C2)cc1-c1cccc(-c2cc(NC(=O)C3CC3)ncn2)c1 [Example 200],IC50,B-Raf kinase,≤ 100 nM
same,IC50,A375 cells,100 to 500 nM
same,IC50,WM3928 cells,≤ 100 nM
same,IC50,Miapaca-2 cells,1000 to 10000 nM
COC(C)(C)CCNC(=O)Nc1cc(-c2nccc(-c3ccnc(NC(=O)C4CC4)c3)n2)c(C)cc1F [Example 83],IC50,B-Raf kinase,≤ 100 nM
same,IC50,A375 cells,1000 to 10000 nM
same,IC50,WM3928 cells,100 to 500 nM
same,IC50,Miapaca-2 cells,1000 to 10000 nM
CNC(=O)c1cc(-c2cncc(-c3cc(NC(=O)N4CC[C@H](C(F)(F)F)C4)c(F)cc3C)c2)ccn1 [Example 214],IC50,B-Raf kinase,500 to 1000 nM
same,IC50,A375 cells,1000 to 10000 nM
same,IC50,WM3928 cells,1000 to 10000 nM
same,IC50,Miapaca-2 cells,1000 to 10000 nM
Cc1cc(F)c(NC(=O)NC2CC(C)(C)C2)cc1-c1cc(OCCO)nc(-c2ccnc(NC(=O)C3CC3)c2)c1 [Example 80],IC50,B-Raf kinase,≤ 100 nM
same,IC50,A375 cells,≤ 100 nM
same,IC50,WM3928 cells,≤ 100 nM
same,IC50,Miapaca-2 cells,1000 to 10000 nM
Cc1cc(F)c(NC(=O)NCCC(C)(C)C#N)cc1-c1cc(N2CCOCC2)nc(N2CCOCC2)c1 [Example 22],IC50,B-Raf kinase,100 to 500 nM
same,IC50,A375 cells,1000 to 10000 nM
same,IC50,WM3928 cells,1000 to 10000 nM
same,IC50,Miapaca-2 cells,1000 to 10000 nM
COC1(CCNC(=O)Nc2cnc(C)c(-c3cccc(-c4cc(NC(=O)C5CC5)ncn4)c3)c2)CC1 [Example 84],IC50,B-Raf kinase,≤ 100 nM
same,IC50,A375 cells,1000 to 10000 nM
same,IC50,WM3928 cells,500 to 1000 nM
same,IC50,Miapaca-2 cells,1000 to 10000 nM
Cc1ccc(NC(=O)N2CCC(C(F)(F)F)C2)cc1-c1cccc(-c2cc(NC(=O)C3CC3)ncn2)c1 (stereo not shown) [Example 73],IC50,B-Raf kinase,≤ 100 nM
same,IC50,A375 cells,100 to 500 nM
same,IC50,WM3928 cells,≤ 100 nM
same,IC50,Miapaca-2 cells,1000 to 10000 nM
Cc1ncc(NC(=O)NCCC(C)(C)F)cc1-c1ccnc(-c2ccnc(NC(=O)C3CC3)c2)c1 [Example 75],IC50,B-Raf kinase,≤ 100 nM
same,IC50,A375 cells,1000 to 10000 nM
same,IC50,WM3928 cells,500 to 1000 nM
same,IC50,Miapaca-2 cells,1000 to 10000 nM
Cc1ccc(NC(=O)N2CC[C@H](C(C)C)C2)cc1-c1cncc(-c2cc(NC(=O)C3CC3)ncn2)c1 [Example 221],IC50,B-Raf kinase,≤ 100 nM
same,IC50,A375 cells,≤ 100 nM
same,IC50,WM3928 cells,≤ 100 nM
same,IC50,Miapaca-2 cells,500 to 1000 nM
Cc1cc(F)c(NC(=O)NCCC(C)(C)C#N)cc1-c1cccc(-c2ccnc(NC(=O)C3CC3)c2)c1 [Example 66],IC50,B-Raf kinase,≤ 100 nM
same,IC50,A375 cells,1000 to 10000 nM
same,IC50,WM3928 cells,100 to 500 nM
same,IC50,Miapaca-2 cells,1000 to 10000 nM
Cc1cc(F)c(NC(=O)NCCC2(C)CC2)cc1-c1ccnc(-c2ccnc3c2CC(=O)N3)c1 [Example 79],IC50,B-Raf kinase,≤ 100 nM
same,IC50,A375 cells,1000 to 10000 nM
same,IC50,WM3928 cells,100 to 500 nM
same,IC50,Miapaca-2 cells,1000 to 10000 nM
Cc1cc(F)c(NC(=O)N2CC[C@H](C(F)(F)F)C2)cc1-c1cncc(-c2cc(NC(=O)C3CC3)ncn2)c1 [Example 216],IC50,B-Raf kinase,≤ 100 nM
same,IC50,A375 cells,100 to 500 nM
same,IC50,WM3928 cells,≤ 100 nM
same,IC50,Miapaca-2 cells,1000 to 10000 nM
Cc1ccc(NC(=O)N2CCC(F)(F)C2)cc1-c1cncc(-c2cc(NC(=O)C3CC3)ncn2)c1 [Example 209],IC50,B-Raf kinase,≤ 100 nM
same,IC50,A375 cells,1000 to 10000 nM
same,IC50,WM3928 cells,1000 to 10000 nM
COC(=O)Nc1cc(-c2cncc(-c3cc(NC(=O)N4CCCCC4)ccc3C)c2)ccn1 [Example 208],IC50,B-Raf kinase,> 1000 nM
same,IC50,A375 cells,500 to 1000 nM
same,IC50,WM3928 cells,500 to 1000 nM
Cc1ccc(NC(=O)N2CCC(CC(F)(F)F)C2)cc1-c1cncc(-c2cc(N)ncn2)c1 (stereo not shown) [Example 207],IC50,B-Raf kinase,100 to 500 nM
same,IC50,A375 cells,1000 to 10000 nM
same,IC50,WM3928 cells,500 to 1000 nM
Cc1ccc(NC(=O)N2CC[C@H](C(F)(F)F)C2)cc1-c1cncc(-c2cc(NC(=O)C3CC3)ncn2)c1 [Example 195],IC50,B-Raf kinase,≤ 100 nM
same,IC50,A375 cells,100 to 500 nM
same,IC50,WM3928 cells,≤ 100 nM
same,IC50,Miapaca-2 cells,1000 to 10000 nM
Cc1cc(F)c(NC(=O)NCCC2(C)CC2)cc1-c1cccc(-c2ccnc(NC(=O)C3CC3)c2)c1 [Example 64],IC50,B-Raf kinase,≤ 100 nM
same,IC50,A375 cells,1000 to 10000 nM
same,IC50,WM3928 cells,100 to 500 nM
same,IC50,Miapaca-2 cells,1000 to 10000 nM
COC(=O)Nc1cc(-c2cc(-c3cc(NC(=O)NCCC4(C)CC4)c(F)cc3C)cc(OCCO)n2)ccn1 [Example 77],IC50,B-Raf kinase,≤ 100 nM
same,IC50,A375 cells,≤ 100 nM
same,IC50,WM3928 cells,≤ 100 nM
same,IC50,Miapaca-2 cells,1000 to 10000 nM
Cc1cc(F)c(NC(=O)NCCC2(C)CC2)cc1-c1cccc(-c2cc(NC(=O)C3CC3)ncn2)c1 [Example 65],IC50,B-Raf kinase,≤ 100 nM
same,IC50,A375 cells,1000 to 10000 nM
same,IC50,WM3928 cells,100 to 500 nM
same,IC50,Miapaca-2 cells,1000 to 10000 nM
Cc1ccc(NC(=O)N2CC[C@@H](C)C2)cc1-c1cncc(-c2cc(NC(=O)C3CC3)ncn2)c1 [Example 219],IC50,B-Raf kinase,≤ 100 nM
same,IC50,A375 cells,500 to 1000 nM
same,IC50,WM3928 cells,500 to 1000 nM
Cc1cc(F)c(NC(=O)NCCC2(C)CC2)cc1-c1cc(OCC(C)(C)O)nc(-c2ccncc2)c1 [Example 34],IC50,B-Raf kinase,≤ 100 nM
same,IC50,A375 cells,1000 to 10000 nM
same,IC50,WM3928 cells,100 to 500 nM
same,IC50,Miapaca-2 cells,1000 to 10000 nM
COC(=O)Nc1cc(-c2cnnc(-c3cc(NC(=O)N4CCC(C(C)(C)O)C4)ccc3C)c2)ccn1 (stereo not shown) [Example 206],IC50,B-Raf kinase,500 to 1000 nM
same,IC50,A375 cells,1000 to 10000 nM
same,IC50,WM3928 cells,1000 to 10000 nM
Cc1ncc(NC(=O)NCCC2(C)CC2)cc1-c1nccc(-c2ccnc(NC(=O)C3CC3)c2)n1 [Example 81],IC50,B-Raf kinase,≤ 100 nM
same,IC50,A375 cells,1000 to 10000 nM
same,IC50,WM3928 cells,500 to 1000 nM
same,IC50,Miapaca-2 cells,1000 to 10000 nM
Cc1cc(F)c(NC(=O)NCCC2(C)CC2)cc1-c1cc(OCCO)nc(-c2ccnc(NC(=O)C3CC3)c2)c1 [Example 76],IC50,B-Raf kinase,≤ 100 nM
same,IC50,A375 cells,≤ 100 nM
same,IC50,WM3928 cells,≤ 100 nM
same,IC50,Miapaca-2 cells,1000 to 10000 nM
Cc1ccc(NC(=O)N2CCC3(CC3)C2)cc1-c1cncc(-c2cc(NC(=O)C3CC3)ncn2)c1 [Example 218],IC50,B-Raf kinase,≤ 100 nM
same,IC50,A375 cells,100 to 500 nM
same,IC50,WM3928 cells,100 to 500 nM
Cc1cc(F)c(NC(=O)NCCC(C)(C)C#N)cc1-c1cccc(-c2cc(NC(=O)C3CC3)ncn2)c1 [Example 67],IC50,B-Raf kinase,≤ 100 nM
same,IC50,A375 cells,1000 to 10000 nM
same,IC50,WM3928 cells,1000 to 10000 nM
same,IC50,Miapaca-2 cells,1000 to 10000 nM
Cc1ccc(NC(=O)N2CC[C@@H](C(F)(F)F)C2)cc1-c1cncc(-c2cc(NC(=O)C3CC3)ncn2)c1 [Example 210],IC50,B-Raf kinase,≤ 100 nM
same,IC50,A375 cells,100 to 500 nM
same,IC50,WM3928 cells,100 to 500 nM
COC(=O)Nc1cc(-c2cncc(-c3cc(NC(=O)N4CCCCCC4)ccc3C)c2)ccn1 [Example 202],IC50,B-Raf kinase,500 to 1000 nM
same,IC50,A375 cells,1000 to 10000 nM
same,IC50,WM3928 cells,1000 to 10000 nM
Cc1ccc(NC(=O)N2CC[C@@H](C(C)C)C2)cc1-c1cncc(-c2cc(NC(=O)C3CC3)ncn2)c1 [Example 217],IC50,B-Raf kinase,≤ 100 nM
same,IC50,A375 cells,≤ 100 nM
same,IC50,WM3928 cells,≤ 100 nM
same,IC50,Miapaca-2 cells,500 to 1000 nM
Cc1cc(F)c(NC(=O)NCCC2(C(F)(F)F)CC2)cc1-c1cc(N2CCOCC2)nc(N2CCOCC2)c1 [Example 23],IC50,B-Raf kinase,≤ 100 nM
same,IC50,A375 cells,500 to 1000 nM
same,IC50,WM3928 cells,100 to 500 nM
same,IC50,Miapaca-2 cells,1000 to 10000 nM
CC(=O)Nc1cc(-c2cc(-c3cc(NC(=O)NCCC4(C)CC4)c(F)cc3C)cc(OCCO)n2)ccn1 [Example 33],IC50,B-Raf kinase,≤ 100 nM
same,IC50,A375 cells,≤ 100 nM
same,IC50,WM3928 cells,≤ 100 nM
same,IC50,Miapaca-2 cells,100 to 500 nM
COC(=O)Nc1cc(-c2cc(-c3cc(NC(=O)N4CC[C@H](C(F)(F)F)C4)ccc3C)nc(C)n2)ccn1 [Example 223],IC50,B-Raf kinase,≤ 100 nM
same,IC50,A375 cells,1000 to 10000 nM
same,IC50,WM3928 cells,1000 to 10000 nM
Cc1ccc(NC(=O)N2CC[C@@H](C(F)(F)F)C2)cc1-c1cccc(-c2cc(NC(=O)C3CC3)ncn2)c1 [Example 201],IC50,B-Raf kinase,≤ 100 nM
same,IC50,A375 cells,500 to 1000 nM
same,IC50,WM3928 cells,100 to 500 nM
same,IC50,Miapaca-2 cells,1000 to 10000 nM
COC(=O)Nc1cc(-c2cc(-c3cc(NC(=O)N4CCC(C(F)(F)F)C4)ccc3C)cc(OCCO)n2)ccn1 (stereo not shown) [Example 222],IC50,B-Raf kinase,≤ 100 nM
same,IC50,A375 cells,100 to 500 nM
same,IC50,WM3928 cells,≤ 100 nM
COC(=O)Nc1cc(-c2cnnc(-c3cc(NC(=O)N4CCC(CC(F)(F)F)C4)ccc3C)c2)ccn1 (stereo not shown) [Example 186],IC50,B-Raf kinase,≤ 100 nM
same,IC50,A375 cells,1000 to 10000 nM
same,IC50,WM3928 cells,500 to 1000 nM
COC(C)(C)CCNC(=O)Nc1cnc(C)c(-c2nccc(-c3ccnc(NC(=O)C4CC4)c3)n2)c1 [Example 82],IC50,B-Raf kinase,100 to 500 nM
same,IC50,A375 cells,1000 to 10000 nM
same,IC50,WM3928 cells,1000 to 10000 nM
same,IC50,Miapaca-2 cells,1000 to 10000 nM
